From PubChem BioAssay (NCI)
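Cells were grown in 96-well plates and exposed to each compound for 48 hours at five concentrations; endpoints were interpolated linearly between bracketing concentrations, or set to the highest concentration if not reached. GI50: concentration for 50% inhibition of growth. TGI marks complete inhibition of growth.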

Assays:
Test in all cases: NCI-60 cell line screen, 48 h
[1] = test system: HL-60(TB) leukemia
[2] = test system: UO-31 renal
[3] = test system: UACC-62 melanoma
[4] = test system: K-562 leukemia
[5] = test system: SK-OV-3 ovarian
[6] = test system: 786-0 renal
[7] = test system: HOP-92 NSCLC
[8] = test system: SN12C renal
[9] = test system: SF-268 CNS
[10] = test system: T-47D breast
[11] = test system: CAKI-1 renal
[12] = test system: NCI-H460 lung
[13] = test system: SW-620 colon
[14] = test system: MDA-MB-435
[15] = test system: MOLT-4 leukemia
[16] = test system: LOX IMVI melanoma
[17] = test system: HT29 colon
[18] = test system: PC-3 prostate
[19] = test system: RXF 393 renal
[20] = test system: NCI/ADR-RES ovarian
[21] = test system: HCT-116 colon
[22] = test system: KM12 colon
[23] = test system: EKVX NSCLC
[24] = test system: RPMI-8226 leukemia
[25] = test system: NCI-H226 lung
[26] = test system: NCI-H23 lung
[27] = test system: M14 melanoma
[28] = test system: OVCAR-3 ovarian
[29] = test system: DU-145 prostate
[30] = test system: OVCAR-5 ovarian
[31] = test system: SR leukemia
[32] = test system: A549 NSCLC
[33] = test system: IGROV1 ovarian
[34] = test system: MDA-MB-231 breast
[35] = test system: HS 578T breast
[36] = test system: ACHN renal
[37] = test system: NCI-H522 lung
[38] = test system: MCF7 breast
[39] = test system: CCRF-CEM leukemia
[40] = test system: SNB-75 CNS
[41] = test system: SK-MEL-28 melanoma
[42] = test system: HCC-2998 colon
[43] = test system: OVCAR-4 ovarian
[44] = test system: OVCAR-8 ovarian
[45] = test system: COLO 205 colon
[46] = test system: BT-549 breast
[47] = test system: HOP-62 NSCLC
[48] = test system: SNB-19 CNS
[49] = test system: SK-MEL-5 melanoma
[50] = test system: HCT-15 colon
[51] = test system: UACC-257 melanoma
[52] = test system: MALME-3M melanoma
[53] = test system: SF-539 CNS
[54] = test system: TK-10 renal
[55] = test system: SF-295 CNS
[56] = test system: A498 renal
[57] = test system: U251 CNS
[58] = test system: SK-MEL-2 melanoma

CC(C)[O-].CC(C)[O-].CN(CCN(C)Cc1cc(F)cc(F)c1[O-])Cc1cc(F)cc(F)c1[O-].[Ti+4]
GI50 [1]: 1.51 µM
TGI [1]: > 40.8 µM
GI50 [2]: 0.977 µM
TGI [2]: 5.46 µM
GI50 [3]: 1.26 µM
TGI [3]: 3.09 µM
GI50 [4]: 0.835 µM
TGI [4]: 5.49 µM
GI50 [5]: 0.634 µM
TGI [5]: 9.09 µM
GI50 [6]: 1.48 µM
TGI [6]: 5.7 µM
GI50 [7]: 0.316 µM
TGI [7]: 1.18 µM
GI50 [8]: 1.53 µM
TGI [8]: 7.31 µM
GI50 [9]: 1.04 µM
TGI [9]: 3.22 µM
GI50 [10]: 0.416 µM
TGI [10]: 8.31 µM
GI50 [11]: 0.874 µM
TGI [11]: 6.45 µM
GI50 [12]: 0.575 µM
TGI [12]: 2.83 µM
GI50 [13]: 0.828 µM
TGI [13]: 3.3 µM
GI50 [14]: 0.585 µM
TGI [14]: 2.1 µM
GI50 [15]: 0.9 µM
TGI [15]: 8.47 µM
GI50 [16]: 0.784 µM
TGI [16]: 3.88 µM
GI50 [17]: 1.72 µM
TGI [17]: 3.81 µM
GI50 [18]: 1.23 µM
TGI [18]: 5.43 µM
GI50 [19]: 0.357 µM
TGI [19]: 1.31 µM
GI50 [20]: 0.863 µM
TGI [20]: 7.05 µM
GI50 [21]: 0.792 µM
TGI [21]: 4.86 µM
GI50 [22]: 0.907 µM
TGI [22]: 2.95 µM
GI50 [23]: 1.31 µM
TGI [23]: 10 µM
GI50 [24]: 0.882 µM
TGI [24]: 4.44 µM
GI50 [25]: 2.14 µM
TGI [25]: 10.5 µM
GI50 [26]: 0.706 µM
TGI [26]: 2.72 µM
GI50 [27]: 0.638 µM
TGI [27]: 2.3 µM
GI50 [28]: 0.923 µM
TGI [28]: 6.78 µM
GI50 [29]: 1.47 µM
TGI [29]: 7.06 µM
GI50 [30]: 1.51 µM
TGI [30]: 8.78 µM
GI50 [31]: 0.512 µM
GI50 [32]: 0.892 µM
TGI [32]: 7.95 µM
GI50 [33]: 0.688 µM
TGI [33]: 2.47 µM
GI50 [34]: 1.67 µM
TGI [34]: 10.5 µM
GI50 [35]: 1.62 µM
TGI [35]: 6.22 µM
GI50 [36]: 1 µM
TGI [36]: 8.34 µM
GI50 [37]: 0.777 µM
TGI [37]: 2.33 µM
GI50 [38]: 0.687 µM
TGI [38]: 2.78 µM
GI50 [39]: 0.512 µM
TGI [39]: > 35.1 µM
GI50 [40]: 0.517 µM
TGI [40]: 2.52 µM
GI50 [41]: 0.692 µM
TGI [41]: 2.17 µM
GI50 [42]: 2.22 µM
TGI [42]: 7.52 µM
GI50 [43]: 0.717 µM
TGI [43]: 7.18 µM
GI50 [44]: 1.09 µM
TGI [44]: 6.55 µM
GI50 [45]: 1.62 µM
TGI [45]: 4.86 µM
GI50 [46]: 1.95 µM
TGI [46]: 5.92 µM
GI50 [47]: 0.634 µM
TGI [47]: 3.68 µM
GI50 [48]: 0.909 µM
TGI [48]: 8.15 µM
GI50 [49]: 0.467 µM
TGI [49]: 1.67 µM
GI50 [50]: 0.526 µM
TGI [50]: 15.1 µM
GI50 [51]: 1.15 µM
TGI [51]: 3.9 µM
GI50 [52]: 0.379 µM
TGI [52]: 1.43 µM
GI50 [53]: 1.01 µM
TGI [53]: 4.8 µM
GI50 [54]: 1.42 µM
TGI [54]: 7.26 µM
GI50 [55]: 0.71 µM
TGI [55]: 3.76 µM
GI50 [56]: 1.13 µM
TGI [56]: 2.76 µM
GI50 [57]: 0.438 µM
TGI [57]: 1.83 µM
GI50 [58]: 1.52 µM
TGI [58]: 4.95 µM

COc1ccc(C(=O)c2nc3ccccc3n2CC(=O)c2ccc(Cl)cc2)cc1
GI50 [1]: 0.958 µM
TGI [1]: 5.06 µM
GI50 [2]: 7.04 µM
TGI [2]: > 100 µM
GI50 [3]: 4.93 µM
TGI [3]: > 100 µM
GI50 [4]: 0.585 µM
TGI [4]: > 100 µM
GI50 [5]: 10.4 µM
TGI [5]: > 100 µM
GI50 [6]: 3.88 µM
TGI [6]: > 100 µM
GI50 [7]: > 100 µM
TGI [7]: > 100 µM
GI50 [8]: 9.72 µM
TGI [8]: > 100 µM
GI50 [9]: 5.98 µM
TGI [9]: > 100 µM
GI50 [10]: 3.65 µM
TGI [10]: > 100 µM
GI50 [11]: 53.6 µM
TGI [11]: > 100 µM
GI50 [12]: 7.34 µM
TGI [12]: > 100 µM
GI50 [13]: 1.29 µM
TGI [13]: > 100 µM
GI50 [14]: 0.336 µM
TGI [14]: 1.79 µM
GI50 [15]: 2.09 µM
TGI [15]: > 100 µM
GI50 [16]: 6.2 µM
TGI [16]: > 100 µM
GI50 [17]: 2.82 µM
TGI [17]: > 100 µM
GI50 [18]: 3.09 µM
TGI [18]: > 100 µM
GI50 [19]: 2.6 µM
TGI [19]: > 24.6 µM
GI50 [20]: 1.2 µM
TGI [20]: > 21.3 µM
GI50 [21]: 3.15 µM
TGI [21]: > 100 µM
GI50 [22]: 1.59 µM
TGI [22]: > 100 µM
GI50 [23]: 11.6 µM
TGI [23]: > 100 µM
GI50 [24]: 1.71 µM
TGI [24]: > 23.9 µM
GI50 [25]: > 28.4 µM
TGI [25]: > 100 µM
GI50 [26]: 4.61 µM
TGI [26]: > 100 µM
GI50 [27]: 2.27 µM
TGI [27]: > 100 µM
GI50 [28]: 2.55 µM
TGI [28]: > 20.4 µM
GI50 [29]: 4.51 µM
TGI [29]: > 100 µM
GI50 [30]: > 82.3 µM
TGI [30]: > 100 µM
GI50 [31]: 0.569 µM
GI50 [32]: 17.5 µM
TGI [32]: > 100 µM
GI50 [33]: 6.09 µM
TGI [33]: > 100 µM
GI50 [34]: 15.6 µM
TGI [34]: > 100 µM
GI50 [35]: 2.49 µM
TGI [35]: 12.4 µM
GI50 [36]: 6.4 µM
TGI [36]: > 100 µM
GI50 [37]: 3.95 µM
TGI [37]: > 100 µM
GI50 [38]: 2.1 µM
TGI [38]: > 100 µM
GI50 [39]: 2.24 µM
TGI [39]: > 26.4 µM
GI50 [40]: 2.75 µM
TGI [40]: > 100 µM
GI50 [41]: 3.02 µM
TGI [41]: > 100 µM
GI50 [42]: 3.94 µM
TGI [42]: > 100 µM
GI50 [43]: 5.02 µM
TGI [43]: > 100 µM
GI50 [44]: 6.3 µM
TGI [44]: > 100 µM
GI50 [45]: 11.3 µM
TGI [45]: > 83.7 µM
GI50 [46]: 4.11 µM
TGI [46]: > 100 µM
GI50 [47]: 4.78 µM
TGI [47]: > 100 µM
GI50 [48]: 4.32 µM
TGI [48]: > 100 µM
GI50 [49]: 2.55 µM
TGI [49]: 12.9 µM
GI50 [50]: 2 µM
TGI [50]: > 100 µM
GI50 [51]: > 23.6 µM
TGI [51]: > 100 µM
GI50 [52]: 1.92 µM
TGI [52]: > 100 µM
GI50 [53]: 2.85 µM
TGI [53]: > 30.5 µM
GI50 [54]: 4.02 µM
TGI [54]: > 100 µM
GI50 [55]: 2.5 µM
TGI [55]: > 100 µM
GI50 [56]: 4.07 µM
TGI [56]: 39.4 µM
GI50 [57]: 3.41 µM
TGI [57]: > 100 µM
GI50 [58]: 12.6 µM
TGI [58]: > 100 µM
